Measured values published in patent US10786525B2, “Method for treating haemorrhage, shock and brain injury” (priority 2013, dated 2020).

How the values were obtained:
[1] = oral and/or intravenous 10, 25, 50, and 100 mg/kg; cited from earlier work
[2] = system: isolated guinea-pig mesenteric artery; assay: Pressure myograph relaxation of AVP-constricted mesenteric artery (Example 4); settings: for relaxation of intact artery: 0.001 to 1 mM, luminal or abluminal; for abluminal versus luminal relaxation: adenosine: at 10 μM and 100 μM
Description: Male guinea pigs (250-300 g) were anesthetised and placed in a cradle and the abdomen opened. Second order mesenteric artery branches were isolated and mounted in a pressure myograph (see FIG. 4) under constant pressure of 60 mmHg and perfusion (luminal flow) of 100 uL/min with Krebs-Henseleit buffer (37° C.). Artery diameter was continuously measured using videomicroscopy (see FIG. 4). For the relaxation/vasodilation experiments arteries were equilibrated and then constricted with 10^−8 M arginine vasopressin (AVP). Adenosine, lidocaine or adenosine-lidocaine together were administered 2) luminally and 2) abluminally and concentration curves were obtained. Stock solutions of adenosine and lidocaine alone or adenosine-lidocaine combined were made in deionized water to 20 mM. A range of volumes were pipetted to provide contact concentrations with the vessel lumen or outer wall that ranged from 0.001 to 1 mM. At the end of experiments, arteries were dilated using calcium-free solution to obtain 100% relaxation. A number of arteries were denuded by introducing 5 ml air into the lumen with flow rate 1000 μl/min. The air outflow was then clamped until the intraluminal pressure reached 70 mmHg, flow rate was reduced to 2 μl/min and the vessel remained pressurized for 10 minutes

SMILES	safety in humans [1]	relaxation with or without intact endothelium [2]	relaxation of intact artery [2]	abluminal versus luminal relaxation [2]	artery diameter in the presence of endothelium [2]	relaxation when endothelium was absent ([2]; denuded)
NC(=O)c1ncn([C@@H]2O[C@H](CO)[C@@H](O)[C@H]2O)c1N [Acadesine, 5-amino-4-imidazole carboxamide ribonucleoside]	safe in humans	–	–	–	–	–
Nc1ncnc2c1ncn2[C@@H]1O[C@H](CO)[C@@H](O)[C@H]1O [adenosine]	–	relaxed the mesenteric artery in a dose dependent manner	increased relaxation	significantly more relaxation	–	–
CCN(CC)CC(=O)Nc1c(C)cccc1C [lidocaine]	–	–	failed to produce relaxation	no significant difference	did not significantly change mesenteric artery diameter	relaxed the artery
